Columns and labels:
Assay type in all cases: physicochemical
[1] = Form stability on drying, checked by XRPD; details: for change to the polymorph during drying (XRPD): wet solids vacuum-dried at 50° C. for 2 hours; for form stability upon drying under ambient condition (XRPD): solids isolated from slurry
Protocol: Crystalline polymorph Form 1 (20 mg) was suspended in 0.2-0.9 mL of methyl tert-butyl ether (MTBE). The resulting slurry was stirred at room temperature for 4 days, after which the remaining solids were isolated and subjected to XRPD.
Crystalline polymorph Form 1 (20 mg) was suspended in 0.2-0.9 mL of tetrahydrofurane:H2O (1:9 v:v). The resulting slurry was stirred at room temperature for 4 days, after which the remaining solids were isolated and subjected to XRPD.
A solution of crystalline polymorph Form 1 (20 mg in 0.3 mL) was mixed with 0.3 mL a solution of KOH in ethyl acetate (1:1 molar ratio of KOH:Form 1), and then stirred for 2 to 5 days at room temperature. The solids were isolated and subjected to XRPD. The wet solids were also vacuum-dried at 50° C. for 2 hours, and then subjected to XRPD. […] This crystalline polymorph was also characterized by TGA, DSC, and PLM. […] Based on the results, Form 9 was considered to be a hydrate or a solvate.
X-Ray Powder Diffraction was obtained by standard techniques using Panalytical X'Pert3 Powder XRPD on a Si zero-background holder operating with a Cu Kα radiation source at 45 kV, 40 mA (Kα1 (Å): 1.540598, Kα2 (Å): 1.544426, Kα2/Kα1 intensity ratio: 0.50). The 2θ position was calibrated against Panalytical Si reference standard disc. The scanning parameters ranged from 3 to 40° 2θ (±0.0131°) and a continuous scan at a rate of about 0.04° 2θ/minute.

[2] = Solubility of crystalline polymorph in biologically relevant media (water, SGF, FaSSIF, FeSSIF), HPLC of supernatant, pH, XRPD of remaining solids; details: for solubility at 1 h / solubility at 4 h / solubility at 24 h: thermodynamic from solid, 37° C.; for pH: solubility test
Protocol: The solubility of crystalline polymorph Form 1 was tested in biologically relevant media: water, simulated gastric fluid (SGF), fasted state simulated intestinal fluid (FaSSIF) and fed state simulated intestinal fluid (FeSSIF). For example, the crystalline polymorph was suspended in the solvent with stirring at 400 rpm at 37° C. for 1 h, 4 h and 24 h followed by filtration. The supernatant concentration was measured by HPLC (Mobile phase A: 0.1% NH3 in H2O, Mobile phase B: acetonitrile; flow rate: 0.8 mL/min; injection volume: 5 μL). The remaining solids were tested by XRPD.
The solubility of crystalline polymorph Form 11 was tested in biologically relevant media: water, SGF, FaSSIF, and FeSSIF. For example, the crystalline polymorph was suspended in the solvent with stirring at 400 rpm at 37° C. for 1 h, 4 h and 24 h followed by filtration. The supernatant was measured by HPLC for concentration and the remaining solids were tested by XRPD.

[3] = Slurry conversion (competitive) experiments for thermodynamic stability relationship; details: for pH of solution: 2.5 mg in 1 mL of 4% dichloromethane
Protocol: To determine the thermodynamic stability relationship between Form 1 and Form 5, slurry conversion experiments were conducted. Specifically, Form 1 sample was added to 1.0 mL H2O:acetone (9:1 v:v) or 0.8 mL of H2O:ethanol (3:1 v:v) at room temperature. After equilibrium for 1 hr, the suspensions were filtered to obtain a saturated solution Form 1. To each saturated solution of Form 1:Form 5 (1:1) was added. After stirring at room temperature for 2 or 3 days, the solids were isolated for XRPD analysis.
To determine the thermodynamic stability relationship between Form 11 and Form 12, slurry conversion experiments were conducted. Specifically, Form 12 (2.5 mg) was added to 1.0 mL of 4% dichloromethane at room temperature. After equilibrium for 1 hour, the suspensions were filtered to obtain a saturated solution Form 12. To the saturated solution of Form 11:Form 12 (1:1) was added. After stirring at room temperature for 30 minutes, the solids were isolated for XRPD analysis. […] The pH of Form 11 solution (2.5 mg in 1 mL of 4% dichloromethane) and Form 12 solution (2.5 mg in 1 mL of 4% dichloromethane) was measured to be 8.25 and 7.98, respectively.

Molecule: Cc1nn(-c2nc(C3=CCC(C(F)(F)F)CC3)c(SC(C)C)s2)c(C(=O)O)c1-c1cccc(F)c1.N=C(N)NCCCC(N)C(=O)O [Form 13, L-arginine 4-(3-fluorophenyl)-1-(5-(isopropylthio)-4-(4-(trifluoromethyl)cyclohex-1-en-1-yl)thiazol-2-yl)-3-methyl-1H-pyrazole-5-carboxylate]
- change to the polymorph during drying (XRPD) [1]: no change to the polymorph was observed

Molecule: magnesium 4-(3-fluorophenyl)-1-(5-(isopropylthio)-4-(4-(trifluoromethyl)cyclohex-1-en-1-yl)thiazol-2-yl)-3-methyl-1H-pyrazole-5-carboxylate [Form 14]
- change to the polymorph during drying (XRPD) [1]: no change to the polymorph was observed

Molecule: Cc1nn(-c2nc(C3=CCC(C(F)(F)F)CC3)c(SC(C)C)s2)c(C(=O)O)c1-c1cccc(F)c1 (centres unmarked) [Form 8, 4-(3-fluorophenyl)-1-(5-(isopropylthio)-4-(4-(trifluoromethyl)cyclohex-1-en-1-yl)thiazol-2-yl)-3-methyl-1H-pyrazole-5-carboxylic acid]
- form stability upon drying under ambient condition (XRPD) [1]: metastable and partially converted to Form 1

Molecule: Cc1nn(-c2nc(C3=CCC(C(F)(F)F)CC3)c(SC(C)C)s2)c(C(=O)O)c1-c1cccc(F)c1.O=C(O)C1CCCN1 [Form 16, L-proline 4-(3-fluorophenyl)-1-(5-(isopropylthio)-4-(4-(trifluoromethyl)cyclohex-1-en-1-yl)thiazol-2-yl)-3-methyl-1H-pyrazole-5-carboxylate]
- change to the polymorph during drying (XRPD) [1]: no change to the polymorph was observed

Molecule: Cc1nn(-c2nc(C3=CCC(C(F)(F)F)CC3)c(SC(C)C)s2)c(C(=O)O)c1-c1cccc(F)c1.NC(N)=O (centres unmarked) [Form 15, urea 4-(3-fluorophenyl)-1-(5-(isopropylthio)-4-(4-(trifluoromethyl)cyclohex-1-en-1-yl)thiazol-2-yl)-3-methyl-1H-pyrazole-5-carboxylate]
- change to the polymorph during drying (XRPD) [1]: no change to the polymorph was observed

Molecule: Cc1nn(-c2nc(C3=CCC(C(F)(F)F)CC3)c(SC(C)C)s2)c(C(=O)[O-])c1-c1cccc(F)c1.[K+] (centres unmarked) [Form 9, potassium 4-(3-fluorophenyl)-1-(5-(isopropylthio)-4-(4-(trifluoromethyl)cyclohex-1-en-1-yl)thiazol-2-yl)-3-methyl-1H-pyrazole-5-carboxylate]
- change to the polymorph during drying (XRPD) [1]: no change to the polymorph was observed

Molecule: Cc1nn(-c2nc(C3=CCC(C(F)(F)F)CC3)c(SC(C)C)s2)c(C(=O)[O-])c1-c1cccc(F)c1.[Na+] (centres unmarked) [Form 11, sodium 4-(3-fluorophenyl)-1-(5-(isopropylthio)-4-(4-(trifluoromethyl)cyclohex-1-en-1-yl)thiazol-2-yl)-3-methyl-1H-pyrazole-5-carboxylate]
- Form change by XRPD of remaining solids ([2]; after solubility test in FaSSIF): no form change was observed
- Form change by XRPD of remaining solids ([2]; after solubility test in FeSSIF): converted to Form 1
- Form change by XRPD of remaining solids ([2]; after solubility test in SGF): converted to Form 1
- Form change by XRPD of remaining solids ([2]; after solubility test in water): no form change was observed
- solubility at 1 h ([2]; fasted state simulated intestinal fluid (FaSSIF), FaSSIF, 1 hr): 100 µg/mL
- solubility at 4 h ([2]; fasted state simulated intestinal fluid (FaSSIF), FaSSIF, 4 hr): 100 µg/mL
- solubility at 24 h ([2]; fasted state simulated intestinal fluid (FaSSIF), FaSSIF, 24 hr): 200 µg/mL
- solubility at 1 h ([2]; fed state simulated intestinal fluid (FeSSIF), FeSSIF, 1 hr): 200 µg/mL
- solubility at 4 h ([2]; fed state simulated intestinal fluid (FeSSIF), FeSSIF, 4 hr): 300 µg/mL
- solubility at 24 h ([2]; fed state simulated intestinal fluid (FeSSIF), FeSSIF, 24 hr): 400 µg/mL
- solubility at 1 h ([2]; simulated gastric fluid (SGF), simulated gastric fluid, SGF, 1 hr): 40 µg/mL
- solubility at 4 h ([2]; simulated gastric fluid (SGF), simulated gastric fluid, SGF, 4 hr): 100 µg/mL
- solubility at 24 h ([2]; simulated gastric fluid (SGF), simulated gastric fluid, SGF, 24 hr): 300 µg/mL
- pH ([2]; FaSSIF, 1 hr): 6.48
- pH ([2]; FaSSIF, 4 hr): 6.45
- pH ([2]; FaSSIF, 24 hr): 6.56
- pH ([2]; FeSSIF, 1 hr): 5.19
- pH ([2]; FeSSIF, 4 hr): 5.28
- pH ([2]; FeSSIF, 24 hr): 5.32
- pH ([2]; H2O, 1 hr): 9.67
- pH ([2]; H2O, 4 hr): 9.31
- pH ([2]; H2O, 24 hr): 9.17
- pH ([2]; SGF, 1 hr): 2.12
- pH ([2]; SGF, 4 hr): 2.55
- pH ([2]; SGF, 24 hr): 6.81
- solubility at 1 h ([2]; water, H2O, 1 hr): 1400 µg/mL
- solubility at 4 h ([2]; water, H2O, 4 hr): 1300 µg/mL
- solubility at 24 h ([2]; water, H2O, 24 hr): 1200 µg/mL
- change to the polymorph during drying (XRPD) [1]: no change to the polymorph was observed
- pH of solution [3]: 8.25
- thermodynamic stability relationship between Form 11 and Form 12 ([3]; slurry of Form 11:Form 12 (1:1) in 4% dichloromethane, room temperature, 30 minutes): more thermodynamically stable than Form 12

Molecule: Cc1nn(-c2nc(C3=CCC(C(F)(F)F)CC3)c(SC(C)C)s2)c(C(=O)O)c1-c1cccc(F)c1 (centres unmarked) [Form 2, 4-(3-fluorophenyl)-1-(5-(isopropylthio)-4-(4-(trifluoromethyl)cyclohex-1-en-1-yl)thiazol-2-yl)-3-methyl-1H-pyrazole-5-carboxylic acid]
- form stability upon drying under ambient condition (XRPD) [1]: metastable and partially converted to Form 1

Molecule: Cc1nn(-c2nc(C3=CCC(C(F)(F)F)CC3)c(SC(C)C)s2)c(C(=O)[O-])c1-c1cccc(F)c1.[Na+] (centres unmarked) [Form 12, sodium 4-(3-fluorophenyl)-1-(5-(isopropylthio)-4-(4-(trifluoromethyl)cyclohex-1-en-1-yl)thiazol-2-yl)-3-methyl-1H-pyrazole-5-carboxylate]
- change to the polymorph during drying (XRPD) [1]: no change to the polymorph was observed
- pH of solution [3]: 7.98

Molecule: Cc1nn(-c2nc(C3=CCC(C(F)(F)F)CC3)c(SC(C)C)s2)c(C(=O)[O-])c1-c1cccc(F)c1.[K+] (centres unmarked) [Form 10, potassium 4-(3-fluorophenyl)-1-(5-(isopropylthio)-4-(4-(trifluoromethyl)cyclohex-1-en-1-yl)thiazol-2-yl)-3-methyl-1H-pyrazole-5-carboxylate]
- change to the polymorph during drying (XRPD) [1]: no change to the polymorph was observed

— patent US12378234B2, “Crystalline polymorphs of a 1-thiazol-2-yl-pyrazole-5-carboxylic acid derivative” (Bantam Pharmaceutical, LLC, priority 2019, dated 2025)
